The values that follow come from paper PMC10218234, “Design, Synthesis and Antitumor Activity of 1H-indazole-3-amine Derivatives” (International Journal of Molecular Sciences, 2023).

A word on the IC50: it is the midpoint of a concentration-inhibition curve. One may read the melting point as the temperature, or range, at which the solid turns liquid.

Series [1] relates to K562 cells. Description: Cell cycle analysis (PI staining, flow cytometry). In kind it is cell-based, human. The following applies: 24 h. The procedure:
To further explore the antitumor properties of 6o, the effect of 6o on cell cycle distribution was evaluated. PI staining was used to perform cell cycle analysis.
To analyze the cell cycle, a PI apoptosis detection kit (Solarbio, Wuhan, China) was utilized. After K562 cells were seeded in 6-well plates for 24 h, compound 6o (10, 12 and 14 μM) or positive control was added to the plates for another 24 h. Then, cells were washed three times with PBS, and fixed with 70% ethanol at 4°C for overnight. After fixed, cells were again washed with PBS and incubated at 37 °C with 100 μL RNase A for 30 min. After this, cells were incubated with 400 μL PI for 30 min at 4 °C. After staining, cells were subjected to Flow Cytometry using Cell Quest software (BD, SN: E34297502014) and the PI fluorescence was recorded in the FL2 channel. Data were analyzed using FlowJo V10.
A general note: A flow cytometer gives signals particle by particle.

In series [2] the test system is A549 cells. The experiment in a line: MTT anti-proliferative assay, A549. In kind it is cell-based. The following applies: Homo sapiens, Table 2, 48 h, read-out: IC50 ± SD, A549. Here is the method:
(§1) The antiproliferative activity of the target indazole derivatives was evaluated against a panel of human cancer cell lines (human chronic myeloid leukemia cell lines K562; human lung cancer cell lines A549; human prostate cancer cell lines PC-3; human hepatoma cell lines HepG-2) in vitro, and human embryonic kidney cell lines HEK-293 were used to evaluate the cytotoxicity of a normal cell with high activity derivatives by MTT assay. Moreover, 5-fluorouracil (5-Fu), a broad-spectrum drug antitumor drug with therapeutic effects on various cancers, was used as a positive control.
(§2) Lung (A549), chronic myeloid leukemia (K562), prostate (PC3), and live (Hep-G2) cells were purchased from the Cell Bank of the Chinese Academy of Sciences (Kunming, China). A549, K562, and PC-3 cells were cultured in RPMI-1640 medium and the liver cells Hep-G2 were cultured in MEM medium. All mediums were supplemented with 10% FBS, 100 μg/mL penicillin and 100 μg/mL streptomycin. All cells were cultivated in a 5% CO2 incubator at 37 °C.
(§3) To investigate the anticancer activity of indazole derivatives, A549, K562, PC3, and Hep-G2 cells were treated with targets compounds respectively for 48 h in a range of concentrations (from 0.625 to 10 μM) and subjected to a proliferation assay using the MTT assay. Exponentially growing cells were seeded at a density of 5000 cells per well in 96-well plates containing 100 μL of fresh growth medium. After allowing the cells to attach for 24 h, target compounds were added. After incubation for 48 h, viable cells were stained with MTT (0.5 mg/mL) for 4 h, and the produced formazan crystals were dissolved with 150 µL of dimethyl sulfoxide. Absorbance was measured at 490 nm using an automated microplate reader (Tecan, Infinite M200 Pro, Männedorf, Switzerland). The relative cell viability was calculated according to the following equation: Cell viability%=experimental OD value/control OD value×100%Cell inhibition%=control OD value−experimental OD value/control OD value×100%
(§4) Cell inhibition%=control OD value−experimental OD value/control OD value×100%
(In general: Tetrazolium assays rely on reduction of a dye to a coloured formazan, in cell work by metabolically active cells.)

Series [3] has as its system Bax and Bcl-2 expression in K562 cells. Description: Western blotting of apoptosis-related proteins Bax and Bcl-2. In kind it is cell-based, human. Particulars: K562, 48 h. The procedure:
(§5) To quantify the effects of 6o on K562 cell apoptosis, K562 cells were treated with different concentrations of the compound 6o and followed by Annexin V-FITC/PI detection assay.
K562 cells were treated with compound 6o for 48 h, then, lysed in 1×RIPA lysis buffer (Solarbio) with proteinase (Solarbio) and phosphatase inhibitors (Solarbio) for 15 min on ice (proteinase: phosphatase inhibitors: 1 × RIPA lysis buffer = 1:1:100), scraped off from the plate and prepared cell lysates. These lysates were centrifuged at 1.2 × 10^4 rpm at 4 °C for 15 min to collect the supernatants and the protein concentration of each sample was quantified by the BCA protein assay kit (Beyotime, Shanghai, China). Protein was separated by SDS-PAGE and then transferred onto the PVDF membrane. After blocking with 5% skim milk for 2 h, befitting primary antibodies include Bax (Proteintech; Type: Rabbit; Cat No.: 50599-2-lg); Bcl-2 (Proteintech; Type: Mouse; Cat No.: 60178-1-lg); GAPDH (Proteintech; Type: Mouse; Cat No.: 60004-1-lg); β-actin (Proteintech; Type: Rabbit; Cat No.: 81115-1-RR); P53 (Cell signaling; Type: Rabbit; Cat No.: #2527) and MDM2 (Cell signaling; Type: Rabbit; Cat No.: #86934) were sealed in Antibody Dilution Buffer, and cocultivated with the PDF membrane at 4 °C for overnight. […]

Series [4] concerns K562 cells. The experiment in a line: MTT anti-proliferative assay, K562. Particulars: Homo sapiens. In kind it is cell-based. Here is the method: as §1, §2, §3, §4
Series [5] has as its system PC-3 cells. Description: MTT anti-proliferative assay, PC-3. In kind it is cell-based. Particulars: Homo sapiens, PC-3, 48 h, Table 2, read-out: IC50 ± SD, PC-3. Here is the method:
as §1, §2
as §3, with “Exponentially” for “To investigate the anticancer activity of indazole derivatives, A549, K562, PC3, and Hep-G2 cells were treated with targets compounds respectively for 48 h in a range of concentrations (from 0.625 to 10 μM) and subjected to a proliferation assay using the MTT assay. Exponentially”
as §4

For series [6], the system named is K562 cells. Description: Annexin V-FITC/PI cell apoptosis detection assay (flow cytometry). It counts as cell-based, human. Particulars: 48 h. Here is the method: as §5
Activation of tumor cell apoptosis plays an important role in treatment cancer. To investigate whether apoptosis could underlie the anticancer activity of 6o, K562 cells were treated with 6o (0, 10, 12 or 14 μM) for 48 h and the percentage of apoptosis was determined by flow cytometry, Annexin V-FITC/PI Apoptosis Detection Kit (BD, Franklin Lakes, NJ, USA) was used. Cells (1 × 10^6/mL per well) were plated in 6-well culture plates and grown for 24 h. After treatment with compound 6o for 48 h, the collected cells were washed two times with ice-cold PBS, counted, and 100 μL of cell suspension with a density of 1 × 10^6 cells/mL was prepared, then incubated with 5 μL Annexin V-FITC and 5 μL Propidium iodide (PI) in the dark for 15 min. After 15 min of incubation and added 400 μL of 1 × binding buffer, and use Cell Quest software (BD, SN: E34297502014) to perform detection on Flow Cytometry (BD, Franklin Lakes, NJ, USA). Data were analyzed using FlowJo V10.

For series [7], the system named is p53 and MDM2 expression in K562 cells. The experiment in a line: Western blotting of p53 and MDM2. In kind it is cell-based, human. The following applies: K562, 48 h. Here is the method: Loss of p53 activity by deletion, mutation, or MDM2 over-expression, is the most common event in the development and progression of cancer. To confirm the ability of 6o to inhibit the p53 and MDM2 interaction in K562, the expression levels of these two proteins were evaluated by Western blotting assay after 48 h of 6o treatment. […] In summary, 6o could change the expression of p53 and MDM2, disrupting the balance of intracellular p53 protein levels, and eventually inducing apoptosis of K562.
K562 cells were treated with compound 6o for 48 h, then, lysed in 1×RIPA lysis buffer (Solarbio) with proteinase (Solarbio) and phosphatase inhibitors (Solarbio) for 15 min on ice (proteinase: phosphatase inhibitors: 1 × RIPA lysis buffer = 1:1:100), scraped off from the plate and prepared cell lysates. These lysates were centrifuged at 1.2 × 10^4 rpm at 4 °C for 15 min to collect the supernatants and the protein concentration of each sample was quantified by the BCA protein assay kit (Beyotime, Shanghai, China). Protein was separated by SDS-PAGE and then transferred onto the PVDF membrane. […]
Background: In western blotting, separated proteins are transferred to a membrane and probed.

In series [8] the test system is Hep-G2 cells. Description: MTT anti-proliferative assay, Hep-G2. In kind it is cell-based. Particulars: Homo sapiens, HepG2, 48 h, Table 2, 48 h, read-out: IC50 ± SD, Hep-G2. The procedure:
as §1, §2, §3, §4

In series [9] the test system is HEK-293 cells. The experiment in a line: MTT cytotoxicity to normal cells, HEK-293. It counts as cell-based, human. Particulars: IC50 in HEK-293 divided by IC50 in K562. The procedure:
as §1, §3, §4

The nature of series [10]: MTT cytotoxicity to normal cells, HEK-293. In kind it is cell-based, human. Particulars: human, HEK-293 cells (normal human embryonic kidney cells); normal cell HEK-293; MTT; read-out: IC50 ± SD, HEK-293. Here is the method: as §1, §3, §4

“Also recorded” adds a separate entry of the source. Where two headings read alike, the source gives them in different places.

Consider `O=C(CN1CCN(c2ccc(C(F)(F)F)cc2)CC1)Nc1n[nH]c2ccc(-c3ccc(Cl)c(F)c3)cc12` [compound 6o], for which the melting point was in the range of 183 to 185 °C. In addition, the G0/G1 population in series [1] (K562, 10 μM) is recorded as 31.8%. Besides, in [1] (K562, 12 μM), the G0/G1 population is recorded as 36.4%. Also, in series [1] (K562, 14 μM), the G0/G1 population worked out at 41.1%. Further, the “proportion of S phase cells” value in series [1] (K562, 10, 12 and 14 μM, vs negative control) is recorded as “decreased significantly”. Also, in series [2], the IC50 is 6.73 ± 1.03 µM. In [3], the “expression of Bax (pro-apoptotic protein)” value is “increase” and the “expression of Bcl-2 (apoptosis-inhibiting protein)” value is reported as “decreased; also recorded: reduce”. Further, the IC50 in series [4] (Table 2, 48 h, read-out: IC50 ± SD, K562) came to 5.15 ± 0.55 µM. Besides, the IC50 in [4] (Table 3, read-out: IC50 ± SD, K562) turned out to be 5.15 ± 0.55 µM. In addition, the IC50 in series [5] amounted to 8.34 ± 1.55 µM. For the same compound, in series [6] (K562, 10 μM), the “total apoptosis rate (early and late apoptosis)” value (“total apoptosis rate” for short) is given as 9.64%. In addition, the “total apoptosis rate” value in series [6] (K562, 12 μM) stood at 16.59%. Further, in [6] (K562, 14 μM), the “total apoptosis rate” value is given as 37.72%. In series [7], the “expression level of p53 protein” value is reported as “up-regulate” and the “expression of MDM2 protein” value is on record as “reduce”. The IC50 in series [8] was found to be 7.37 ± 0.24 µM. Besides, the “Selectivity index (SI) for K562 cells” value in series [9] is 6.45. Besides, the IC50 at 48 h in series [10] amounted to 33.2 ± 3.83 µM.
